# Measured values from the NIST ThermoML archive (doi:10.1021/je050366x).
# Numbers after ± are expanded uncertainties.
# Test: xn = mol fraction of the nth substance listed
# Settings: for surface tension liquid-gas: Ring tensiometer; for mass density: 100 kPa, Liquid
structure (smiles),measurement,setting,value
O=C(O)C(=O)O [ethanedioic acid] + O,surface tension liquid-gas,"280.2 K, x1 = 0.00716",73.7 ± 1.2 mN/m
same,surface tension liquid-gas,"280.5 K, x1 = 0.00716",73.7 ± 1.2 mN/m
same,surface tension liquid-gas,"281.1 K, x1 = 0.00716",73.8 ± 1.2 mN/m
same,surface tension liquid-gas,"281.2 K, x1 = 0.00716",73.7 ± 1.2 mN/m
same,surface tension liquid-gas,"283.9 K, x1 = 0.00716",73.3 ± 1.2 mN/m
same,surface tension liquid-gas,"284.5 K, x1 = 0.00716",73.2 ± 1.2 mN/m
same,surface tension liquid-gas,"285.1 K, x1 = 0.00716",73.2 ± 1.2 mN/m
same,surface tension liquid-gas,"285.7 K, x1 = 0.00716",73 ± 1.2 mN/m
same,surface tension liquid-gas,"288.2 K, x1 = 0.00716",72.7 ± 1.2 mN/m
same,surface tension liquid-gas,"288.7 K, x1 = 0.00716",72.4 ± 1.2 mN/m
same,surface tension liquid-gas,"289.7 K, x1 = 0.00716",72.6 ± 1.2 mN/m
same,surface tension liquid-gas,"290.1 K, x1 = 0.00716",72.4 ± 1.2 mN/m
same,surface tension liquid-gas,"292.2 K, x1 = 0.00716",72 ± 1.2 mN/m
same,surface tension liquid-gas,"293 K, x1 = 0.00716",71.9 ± 1.2 mN/m
same,surface tension liquid-gas,"293.7 K, x1 = 0.00716",71.9 ± 1.2 mN/m
same,surface tension liquid-gas,"294.3 K, x1 = 0.00716",71.7 ± 1.2 mN/m
same,surface tension liquid-gas,"296.2 K, x1 = 0.00716",71.3 ± 1.2 mN/m
same,surface tension liquid-gas,"297.5 K, x1 = 0.00716",71.2 ± 1.2 mN/m
same,surface tension liquid-gas,"298 K, x1 = 0.00716",71.2 ± 1.2 mN/m
same,mass density,"298 K, Pycnometric method, x1 = 0.002",996 ± 1 kg/m3
same,mass density,"298 K, Pycnometric method, x1 = 0.003",1001 ± 1 kg/m3
same,mass density,"298 K, Pycnometric method, x1 = 0.005",1008 ± 1 kg/m3
same,mass density,"298 K, Pycnometric method, x1 = 0.007",1012 ± 1 kg/m3
same,mass density,"298 K, Pycnometric method, x1 = 0.008",1016 ± 1 kg/m3
same,mass density,"298 K, Pycnometric method, x1 = 0.01",1019 ± 1 kg/m3
same,mass density,"298 K, Pycnometric method, x1 = 0.012",1026 ± 1 kg/m3
same,mass density,"298 K, Pycnometric method, x1 = 0.013",1030 ± 1 kg/m3
same,mass density,"298 K, Pycnometric method, x1 = 0.015",1034 ± 1 kg/m3
same,surface tension liquid-gas,"298.5 K, x1 = 0.00716",71.1 ± 1.2 mN/m
same,surface tension liquid-gas,"301.2 K, x1 = 0.00716",70.4 ± 1.2 mN/m
same,surface tension liquid-gas,"302.1 K, x1 = 0.00716",70.6 ± 1.2 mN/m
same,surface tension liquid-gas,"302.8 K, x1 = 0.00716",70.3 ± 1.2 mN/m
same,surface tension liquid-gas,"304.7 K, x1 = 0.00716",70 ± 1.2 mN/m
O=C(O)CC(O)C(=O)O (stereo not given) [hydroxybutanedioic acid] + O,surface tension liquid-gas,"279.3 K, x1 = 0.06",71 mN/m
same,surface tension liquid-gas,"280.5 K, x1 = 0.06",70.8 mN/m
same,surface tension liquid-gas,"281.3 K, x1 = 0.06",70.6 mN/m
same,surface tension liquid-gas,"281.7 K, x1 = 0.06",70.6 mN/m
same,surface tension liquid-gas,"283.6 K, x1 = 0.06",70.3 mN/m
same,surface tension liquid-gas,"283.7 K, x1 = 0.06",70.1 mN/m
same,surface tension liquid-gas,"284.6 K, x1 = 0.06",70.3 mN/m
same,surface tension liquid-gas,"285 K, x1 = 0.06",70.2 mN/m
same,surface tension liquid-gas,"288.3 K, x1 = 0.06",69.7 mN/m
same,surface tension liquid-gas,"288.5 K, x1 = 0.06",69.5 mN/m
same,surface tension liquid-gas,"289.2 K, x1 = 0.06",69.7 mN/m
same,surface tension liquid-gas,"289.3 K, x1 = 0.06",69.5 mN/m
same,surface tension liquid-gas,"292.7 K, x1 = 0.06",68.7 mN/m
same,surface tension liquid-gas,"293.2 K, x1 = 0.06",68.7 mN/m
same,surface tension liquid-gas,"293.4 K, x1 = 0.06",69.1 mN/m
same,surface tension liquid-gas,"293.7 K, x1 = 0.06",68 mN/m
same,surface tension liquid-gas,"297.1 K, x1 = 0.06",68.2 mN/m
same,surface tension liquid-gas,"297.2 K, x1 = 0.06",67.9 mN/m
same,surface tension liquid-gas,"297.6 K, x1 = 0.06",68.4 mN/m
same,surface tension liquid-gas,"297.7 K, x1 = 0.06",68 mN/m
same,surface tension liquid-gas,"298 K, x1 = 0.003",70.3 ± 1.2 mN/m
same,surface tension liquid-gas,"298 K, x1 = 0.007",70.1 ± 1.2 mN/m
same,surface tension liquid-gas,"298 K, x1 = 0.015",69.8 ± 1.1 mN/m
same,surface tension liquid-gas,"298 K, x1 = 0.023",69.3 ± 1.1 mN/m
same,surface tension liquid-gas,"298 K, x1 = 0.032",69.3 ± 1.1 mN/m
same,surface tension liquid-gas,"298 K, x1 = 0.043",68.4 ± 1.1 mN/m
same,surface tension liquid-gas,"298 K, x1 = 0.054",68.4 ± 1.1 mN/m
same,surface tension liquid-gas,"298 K, x1 = 0.058",68.1 ± 1.1 mN/m
same,surface tension liquid-gas,"298 K, x1 = 0.07",67.8 ± 1.1 mN/m
same,surface tension liquid-gas,"298 K, x1 = 0.082",67.3 ± 1.1 mN/m
same,surface tension liquid-gas,"298 K, x1 = 0.087",66.8 ± 1.1 mN/m
same,mass density,"298 K, x1 = 0.003",1006 ± 2 kg/m3
same,mass density,"298 K, x1 = 0.015",1037 ± 2 kg/m3
same,mass density,"298 K, x1 = 0.023",1051 ± 2 kg/m3
same,mass density,"298 K, x1 = 0.032",1079 ± 2 kg/m3
same,mass density,"298 K, x1 = 0.054",1115 ± 2 kg/m3
same,mass density,"298 K, x1 = 0.075",1146 ± 2 kg/m3
same,mass density,"298 K, x1 = 0.096",1182 ± 2 kg/m3
same,surface tension liquid-gas,"298.2 K, x1 = 0.06",67.8 mN/m
same,surface tension liquid-gas,"301.9 K, x1 = 0.06",67.5 mN/m
same,surface tension liquid-gas,"302.1 K, x1 = 0.06",68.1 mN/m
same,surface tension liquid-gas,"302.3 K, x1 = 0.06",67.9 mN/m
O=C(O)CC(=O)O [propanedioic acid] + O,surface tension liquid-gas,"278.1 K, x1 = 0.06",66.5 ± 1.1 mN/m
same,surface tension liquid-gas,"279.3 K, x1 = 0.06",66 ± 1.1 mN/m
same,surface tension liquid-gas,"279.7 K, x1 = 0.06",65.9 ± 1.1 mN/m
same,surface tension liquid-gas,"282.6 K, x1 = 0.06",66 ± 1.1 mN/m
same,surface tension liquid-gas,"285 K, x1 = 0.06",65.7 ± 1.1 mN/m
same,surface tension liquid-gas,"286.5 K, x1 = 0.06",65.6 ± 1.1 mN/m
same,surface tension liquid-gas,"287.8 K, x1 = 0.06",65.4 ± 1.1 mN/m
same,surface tension liquid-gas,"288.7 K, x1 = 0.06",65.2 ± 1.1 mN/m
same,surface tension liquid-gas,"289.6 K, x1 = 0.06",65.3 ± 1.1 mN/m
same,surface tension liquid-gas,"290.9 K, x1 = 0.06",64.6 ± 1.1 mN/m
same,surface tension liquid-gas,"291.1 K, x1 = 0.06",65 ± 1.1 mN/m
same,surface tension liquid-gas,"293 K, x1 = 0.06",64.6 ± 1.1 mN/m
same,surface tension liquid-gas,"295.3 K, x1 = 0.06",64.7 ± 1.1 mN/m
same,surface tension liquid-gas,"296.7 K, x1 = 0.06",64.1 ± 1.1 mN/m
same,surface tension liquid-gas,"297.1 K, x1 = 0.06",64.1 ± 1.1 mN/m
same,surface tension liquid-gas,"298 K, x1 = 0.01",69.2 ± 1.1 mN/m
same,surface tension liquid-gas,"298 K, x1 = 0.017",68.5 ± 1.1 mN/m
same,surface tension liquid-gas,"298 K, x1 = 0.025",66.7 ± 1.1 mN/m
same,surface tension liquid-gas,"298 K, x1 = 0.033",66.7 ± 1.1 mN/m
same,surface tension liquid-gas,"298 K, x1 = 0.04",65.6 ± 1.1 mN/m
same,surface tension liquid-gas,"298 K, x1 = 0.05",65.6 ± 1.1 mN/m
same,surface tension liquid-gas,"298 K, x1 = 0.055",65.5 ± 1.1 mN/m
same,surface tension liquid-gas,"298 K, x1 = 0.065",65 ± 1.1 mN/m
same,surface tension liquid-gas,"298 K, x1 = 0.07",64.2 ± 1.1 mN/m
same,surface tension liquid-gas,"298 K, x1 = 0.08",63.5 ± 1.1 mN/m
same,surface tension liquid-gas,"298 K, x1 = 0.088",64.2 ± 1.1 mN/m
same,surface tension liquid-gas,"298 K, x1 = 0.094",63.5 ± 1.1 mN/m
same,surface tension liquid-gas,"298 K, x1 = 0.107",62.7 ± 1 mN/m
same,surface tension liquid-gas,"298 K, x1 = 0.122",62.3 ± 1 mN/m
same,surface tension liquid-gas,"298 K, x1 = 0.137",62.2 ± 1 mN/m
same,surface tension liquid-gas,"298 K, x1 = 0.149",62.6 ± 1 mN/m
same,surface tension liquid-gas,"298 K, x1 = 0.158",62.2 ± 1 mN/m
same,mass density,"298 K, Pycnometric method, x1 = 0.009",1016 ± 1 kg/m3
same,mass density,"298 K, Pycnometric method, x1 = 0.03",1054 ± 1 kg/m3
same,mass density,"298 K, Pycnometric method, x1 = 0.041",1068 ± 1 kg/m3
same,mass density,"298 K, Pycnometric method, x1 = 0.055",1090 ± 1 kg/m3
same,mass density,"298 K, Pycnometric method, x1 = 0.069",1108 ± 1 kg/m3
same,mass density,"298 K, Pycnometric method, x1 = 0.085",1129 ± 1 kg/m3
same,mass density,"298 K, Pycnometric method, x1 = 0.102",1152 ± 1 kg/m3
same,mass density,"298 K, Pycnometric method, x1 = 0.147",1196 ± 1 kg/m3
same,surface tension liquid-gas,"298.2 K, x1 = 0.06",63.8 ± 1.1 mN/m
same,surface tension liquid-gas,"299 K, x1 = 0.06",63.6 ± 1.1 mN/m
same,surface tension liquid-gas,"299.1 K, x1 = 0.06",63.9 ± 1.1 mN/m
same,surface tension liquid-gas,"301.2 K, x1 = 0.06",64 ± 1.1 mN/m
same,surface tension liquid-gas,"303.3 K, x1 = 0.06",63 ± 1.1 mN/m
